Data from US10219516B2, “Molecules having pesticidal utility, and intermediates, compositions, and processes, related thereto” (priority 2015, dated 2019).
Read-outs that look alike come from different tables or passages of the source.

Assays:
Assay type in all cases: in vivo
[1] = test system: Beet Armyworm (Spodoptera exigua, LAPHEG); assay: Bioassay on Beet Armyworm (BAW), 128-well diet tray assay
In short: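 Test molecule dissolved in acetone-water 90:10 is applied at 50 μg/cm^2 onto artificial diet and allowed to dry. Second instar larvae, one to five per well, are then added, and trays are vented and kept at 25° C. for five to seven days before mortality is scored.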

[2] = test system: Cabbage Looper (Trichoplusia ni, TRIPNI); assay: Bioassay on Cabbage Looper (CL), 128-well diet tray assay; details: Trichoplusia ni
In short: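 Using eight wells per molecule, artificial diet was dosed at 50 μg/cm^2 with compound in 90:10 acetone-water and dried before one to five second-instar larvae were added per well. Covered vented trays were kept at 25° C. with 14:10 light-dark for five to seven days, then per-well percent mortality was recorded and averaged.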

[3] = test system: Yellow Fever Mosquito (Aedes aegypti, AEDSAE); assay: Bioassay on Yellow Fever Mosquito (YFM), 96-well plate larval assay; details: for YFM rating: Yellow Fever Mosquito, 96-well plate larval assay; for YFM (Biological Results, rating): Species YFM (Yellow Fever Mosquito)
In short: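 Aedes aegypti larvae (about 1 day old) in liver-powder water were added to plates dispensed from DMSO master plates (4000 ppm stock) diluted with 90:10 water/acetone; six replicate plates per master. Lidded plates were held at room temperature for 3 days, then each well was scored for mortality.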

[4] = Beet Armyworm, 128-well diet tray assay, read-out: BAW rating
[5] = Cabbage Looper, 128-well diet tray assay, read-out: CL rating
[6] = Species BAW (Beet Armyworm), read-out: BAW (Biological Results, rating)
[7] = Species CL (Cabbage Looper), read-out: CL (Biological Results, rating)

| SMILES | pest or weed control at 50 µg/cm2 [1, 4] [%] | pest or weed control at 50 µg/cm2 [2, 5] [%] | YFM rating [3] | pest or weed control at 50 µg/cm2 [1, 6] [%] | pest or weed control at 50 µg/cm2 [2, 7] [%] | YFM (Biological Results, rating) [3] |
| --- | --- | --- | --- | --- | --- | --- |
| CC(=O)Nc1ccc(NC(=O)c2cc(NC(=O)[C@H]3[C@H](c4cc(Cl)cc(Cl)c4)C3(Cl)Cl)ccc2Cl)c(F)c1 (relative stereo) [PF40, trans-N-(4-Acetamido-2-fluorophenyl)-2-chloro-5-(2,2-dichloro-3-(3,5-dichlorophenyl)cyclopropane-1-carboxamido)benzamide] | 50 to 100 | 50 to 100 | A (80-100) | – | – | – |
| Nc1cc(F)ccc1NC(=O)c1cc(NC(=O)[C@H]2[C@H](c3cc(Cl)cc(Cl)c3)C2(Cl)Cl)ccc1Cl [F575, N-(2-Amino-4-fluorophenyl)-2-chloro-5-((1R,3R)-2,2-dichloro-3-(3,5-dichlorophenyl)cyclopropane-1-carboxamido)benzamide] | 50 to 100 | 50 to 100 | A (80-100) | – | – | – |
| O=C(Nc1ccc(F)cc1)c1cc(NC(=O)[C@H]2[C@H](c3ccc(Cl)c(Br)c3)C2(Cl)Cl)ccc1Cl (relative stereo) [F330, 5-(trans-3-(3-Bromo-4-chlorophenyl)-2,2-dichlorocyclopropane-1-carboxamido)-2-chloro-N-(4-fluorophenyl)benzamide] | – | – | – | 50 to 100 | 50 to 100 | A (80-100) |
| N#Cc1cc(F)ccc1NC(=O)c1cc(NC(=O)[C@@H]2[C@@H](c3cc(Cl)cc(Cl)c3)C2(Cl)Cl)ccc1Cl [F536, 2-Chloro-N-(2-cyano-4-fluorophenyl)-5-((1S,3S)-2,2-dichloro-3-(3,5-dichlorophenyl)cyclopropane-1-carboxamido)benzamide] | 50 to 100 | 50 to 100 | A (80-100) | – | – | – |
| O=C(Nc1ccc(-n2ccnn2)cc1)c1cc(NC(=O)[C@H]2[C@H](c3cc(Cl)cc(Cl)c3)C2(Cl)Cl)ccc1Cl (relative stereo) [F217, trans-N-(4-(1H-1,2,3-Triazol-1-yl)phenyl)-2-chloro-5-(2,2-dichloro-3-(3,5-dichlorophenyl)cyclopropane-1-carboxamido)benzamide] | – | – | – | 50 to 100 | 50 to 100 | B (More than 0-Less than 80) |
| O=C(Nc1ccc(F)cc1F)c1cc(NC(=O)[C@H]2[C@H](c3cc(Cl)cc(Cl)c3)C2(Cl)Cl)cc(Cl)c1Cl (relative stereo) [F247, trans-2,3-Dichloro-5-(2,2-dichloro-3-(3,5-dichlorophenyl)cyclopropane-1-carboxamido)-N-(2,4-difluorophenyl)benzamide] | – | – | – | 50 to 100 | 50 to 100 | A (80-100) |
| Cc1cc(N)ccc1NC(=O)c1cccc(NC(=O)[C@H]2[C@H](c3cc(Cl)cc(Cl)c3)C2(Cl)Cl)c1 (relative stereo) [F266, trans-N-(4-Amino-2-methylphenyl)-3-(2,2-dichloro-3-(3,5-dichlorophenyl)cyclopropane-1-carboxamido)benzamide] | – | – | – | 50 to 100 | 50 to 100 | A (80-100) |
| Nc1cc(F)ccc1NC(=O)c1cc(NC(=O)[C@H]2[C@H](c3cc(Cl)c(Cl)c(Cl)c3)C2(Cl)Cl)ccc1Cl [F577, N-(2-Amino-4-fluorophenyl)-2-chloro-5-((1R,3R)-2,2-dichloro-3-(3,4,5-trichlorophenyl)cyclopropane-1-carboxamido)benzamide] | 50 to 100 | 50 to 100 | A (80-100) | – | – | – |
| CNc1ccc(NC(=O)c2cc(NC(=O)[C@H]3[C@H](c4ccc(Br)c(Cl)c4)C3(Cl)Cl)ccc2Cl)c(C)c1 (relative stereo) [F323, 5-(trans-3-(4-bromo-3-chlorophenyl)-2,2-dichlorocyclopropane-1-carboxamido)-2-chloro-N-(2-methyl-4-(methylamino)phenyl)benzamide] | – | – | – | 50 to 100 | 50 to 100 | A (80-100) |
| O=C(Nc1ccc(F)cc1Cl)c1cccc(NC(=O)[C@H]2[C@H](c3cc(Cl)cc(Cl)c3)C2(Cl)Cl)c1 (relative stereo) [F274, trans-N-(2-Chloro-4-fluorophenyl)-3-(2,2-dichloro-3-(3,5-dichlorophenyl)cyclopropane-1-carboxamido)benzamide] | – | – | – | 50 to 100 | 50 to 100 | A (80-100) |
| C=Cc1c(F)cnc(NC(=O)c2cc(NC(=O)[C@H]3[C@H](c4cc(Cl)cc(Cl)c4)C3(Cl)Cl)ccc2Cl)c1F (relative stereo) [F393, trans-2-chloro-5-(2,2-dichloro-3-(3,5-dichlorophenyl)cyclopropane-1-carboxamido)-N-(3,5-difluoro-4-vinylpyridin-2-yl)benzamide] | 50 to 100 | 50 to 100 | A (80-100) | – | – | – |
| O=C(Nc1nc2ccccc2s1)c1cc(NC(=O)C2C(c3cc(Cl)cc(Cl)c3)C2(Cl)Cl)ccc1Cl (stereo not drawn) [F441, N-(Benzo[d]thiazol-2-yl)-2-chloro-5-(trans)-2,2-dichloro-3-(3,5-dichlorophenyl)cyclopropane-1-carboxamido)benzamide] | 50 to 100 | 50 to 100 | B (More than 0-Less than 80) | – | – | – |
| N#Cc1cc(F)ccc1NC(=O)c1cc(NC(=O)[C@H]2[C@H](c3cc(Cl)cc(Cl)c3)C2(Cl)Cl)ccc1Cl [F535, 2-Chloro-N-(2-cyano-4-fluorophenyl)-5-((1R,3R)-2,2-dichloro-3-(3,5-dichlorophenyl)cyclopropane-1-carboxamido)benzamide] | 50 to 100 | 50 to 100 | A (80-100) | – | – | – |
| Nc1c(F)ccc(NC(=O)c2cc(NC(=O)[C@H]3[C@H](c4cc(Cl)cc(Cl)c4)C3(Cl)Cl)ccc2Cl)c1F (relative stereo) [F245, trans-N-(3-Amino-2,4-difluorophenyl)-2-chloro-5-(2,2-dichloro-3-(3,5-dichlorophenyl)cyclopropane-1-carboxamido)benzamide] | – | – | – | 50 to 100 | 50 to 100 | A (80-100) |
| COc1nccc(NC(=O)c2cc(NC(=O)[C@H]3[C@H](c4ccc(F)c(Cl)c4)C3(Cl)Cl)ccc2Cl)c1Cl (relative stereo) [F547, 2-Chloro-N-(3-chloro-2-methoxypyridin-4-yl)-5-(trans-2,2-dichloro-3-(3-chloro-4-fluorophenyl)cyclopropane-1-carboxamido)benzamide] | 50 to 100 | 50 to 100 | A (80-100) | – | – | – |
| CN(C(=O)c1cc(NC(=O)[C@H]2[C@H](c3cc(F)cc(C(F)F)c3)C2(Cl)Cl)ccc1Cl)c1ccc(F)cc1 (relative stereo) [F594, 2-Chloro-5-(trans-2,2-dichloro-3-(3-(difluoromethyl)-5-fluorophenyl)cyclopropane-1-carboxamido)-N-(4-fluorophenyl)-N-methylbenzamide] | 50 to 100 | 50 to 100 | A (80-100) | – | – | – |
| O=C(Nc1cc(F)cc([N+](=O)[O-])c1)c1cc(NC(=O)[C@H]2[C@H](c3ccc(F)c(Cl)c3)C2(Cl)Cl)ccc1Cl [F418, 2-Chloro-5-((1R,3R)-2,2-dichloro-3-(3-chloro-4-fluorophenyl)cyclopropane-1-carboxamido)-N-(3-fluoro-5-nitrophenyl)benzamide] | 50 to 100 | 50 to 100 | A (80-100) | – | – | – |
| CNc1cc(NC(=O)c2cc(NC(=O)[C@H]3[C@H](c4cc(Cl)cc(Cl)c4)C3(Cl)Cl)ccc2Cl)ccc1OC (relative stereo) [F200, trans-2-Chloro-5-(2,2-dichloro-3-(3,5-dichlorophenyl)cyclopropane-1-carboxamido)-N-(4-methoxy-3-(methylamino)phenyl)benzamide] | – | – | – | 50 to 100 | 50 to 100 | B (More than 0-Less than 80) |
| N#Cc1cc(F)ccc1NC(=O)c1cc(NC(=O)[C@H]2[C@H](c3cccc(C(F)(F)F)c3)C2(Cl)Cl)ccc1Cl (relative stereo) [F340, trans-2-Chloro-N-(2-cyano-4-fluorophenyl)-5-(2,2-dichloro-3-(3-(trifluoromethyl)phenyl)cyclopropane-1-carboxamido)benzamide] | – | – | – | 50 to 100 | 50 to 100 | A (80-100) |
| O=C(Nc1cccc2[nH]ccc12)c1cc(NC(=O)[C@H]2[C@H](c3cc(Cl)cc(Cl)c3)C2(Cl)Cl)ccc1Cl (relative stereo) [F528, 2-Chloro-5-(trans)-(2,2-dichloro-3-(3,5-dichlorophenyl)cyclopropane-1-carboxamido)-N-(1H-indol-4-yl)benzamide] | 50 to 100 | 50 to 100 | A (80-100) | – | – | – |
| CN(C(=O)c1cc(NC(=O)[C@H]2[C@H](c3cc(Cl)cc(C(F)F)c3)C2(Cl)Cl)ccc1Cl)c1ccc(F)cc1 (relative stereo) [F592, 2-Chloro-5-(trans-2,2-dichloro-3-(3-chloro-5-(difluoromethyl)phenyl)cyclopropane-1-carboxamido)-N-(4-fluorophenyl)-N-methylbenzamide] | 50 to 100 | 50 to 100 | A (80-100) | – | – | – |
